# Earlier results as cited in patent US20050250828A1 (Entire Interest, priority 2004, published 2005).
# What was measured:
# [1] = oral administration
solubility in methanol (methanol),solubility in water (water),absorption when administered orally [1],SMILES
sparingly soluble,sparingly soluble,,"CCOc1nc2cccc(C(=O)OC(C)OC(=O)OC3CCCCC3)c2n1Cc1ccc(-c2ccccc2-c2nnn[nH]2)cc1 (racemic) [candesartan cilexetil, (±)-1-[[(cyclohexyloxy)carbonyl]oxy]ethyl-2-ethoxy-1-[[2′-(1H-tetrazol-5-yl)[1,1′biphenyl]-4-yl]methyl]-1H-benzimidazole-7-carboxylate]"
,,poorly absorbed,"CCOc1nc2cccc(C(=O)O)c2n1Cc1ccc(-c2ccccc2-c2nnn[nH]2)cc1 [Candesartan, 2-ethoxy-1-[[2′-(1H-tetrazol-5-yl)biphenyl-4-yl]methyl]-1H-benzimidazole-7-carboxylic acid]"
